Reference: patent US9237747B2, “Herbicidal compositions comprising 4-amino-3-chloro-5-fluoro-6-(4-chloro-2-fluoro-3-methoxyphenyl) pyridine-2-carboxylic acid or a derivative thereof and insecticides” (priority 2013, dated 2016)
Read-outs that look alike come from different tables or passages of the source.

Key:
[1] = test system: SCPJU; experiment: Postemergence foliar-applied weed control, direct-seeded rice (greenhouse); format: in vivo, Schoenoplectus juncoides; conditions: 4.38 g ae/ha alone
Text: Seeds or nutlets of the desired test plant species were planted in a soil matrix prepared by mixing a loam or sandy loam soil (e.g., 28.6 percent silt, 18.8 percent clay, and 52.6 percent sand, with a pH of about 5.8 and an organic matter content of about 1.8 percent) and calcareous grit in an 80 to 20 ratio. The soil matrix was contained in plastic pots with a volume of 1 quart and a surface area of 83.6 square centimeters (cm^2). When required to ensure good germination and healthy plants, a fungicide treatment and/or other chemical or physical treatment was applied. The plants were grown for 8-22 days in a greenhouse with an approximate 14 hour (h) photoperiod which was maintained at about 29° C. during the day and 26° C. during the night. Nutrients (Peters Excel® 15-5-15 5-Ca 2-Mg and iron chelate) were applied in the irrigation solution as needed and water was added on a regular basis. […]
(§1) Treatment requirements were calculated based upon the rates being tested, the concentration of active ingredient or acid equivalent in the formulation, and a 12 milliliter (mL) application volume at a rate of 187 liters per hectare (L/ha).
For treatments comprised of formulated compounds, measured amounts of compounds were placed individually in 25 mL glass vials and diluted in a volume of 1.25% volume per volume (v/v) Agri-Dex® crop oil concentrate to obtain 12× stock solutions. […]

[2] = test system: LEFPA; experiment: as above; format: in vivo, Leptochloa panicoides
Text: (§2) Seeds or nutlets of the desired test plant species were planted in a soil matrix prepared by mixing a loam or sandy loam soil (e.g., 28.6 percent silt, 18.8 percent clay, and 52.6 percent sand, with a pH of about 5.8 and an organic matter content of about 1.8 percent) and calcareous grit in an 80 to 20 ratio. The soil matrix was contained in plastic pots with a volume of 1 quart and a surface area of 83.6 square centimeters (cm^2). When required to ensure good germination and healthy plants, a fungicide treatment and/or other chemical or physical treatment was applied. The plants were grown for 8-22 days in a greenhouse with an approximate 14 hour (h) photoperiod which was maintained at about 29° C. during the day and 26° C. during the night. Nutrients (Peters Excel® 15-5-15 5-Ca 2-Mg and iron chelate) were applied in the irrigation solution as needed and water was added on a regular basis. Supplemental lighting was provided with overhead metal halide 1000-Watt lamps as necessary. The plants were employed for testing when they reached the first through fourth true leaf stage.
(§3) Treatments consisted of the acid or esters of 4-amino-3-chloro-6-(4-chloro-2-fluoro-3-methoxyphenyl)-5-fluoropyridine-2-carboxylic acid (Compound A), each formulated as an SC (suspension concentrate), and various insecticidal components alone and in combination. Forms of compound A were applied on an acid equivalent basis.
as §1
(§4) For treatments comprised of formulated compounds, measured amounts of compounds were placed individually in 25 mL glass vials and diluted in a volume of 1.25% volume per volume (v/v) Agri-Dex® crop oil concentrate to obtain 12× stock solutions. […] Application solutions were prepared by adding an appropriate amount of each stock solution (e.g., 1 mL) and diluted to the appropriate final concentrations with the addition of […] of an aqueous mixture of 1.25% (v/v) crop oil concentrate so that the final spray solutions contained 1.25+/−0.05% (v/v) crop oil concentrate.
(§5) As required, additional water and/or 97:3 v/v acetone/DMSO was added to individual application solutions so that the final acetone and DMSO concentrations of the application solutions being compared were 8.1% and 0.25%, respectively.
(§6) All stock solutions and applications solutions were visually inspected for compound compatibility prior to application. Spray solutions were applied to the plant material with an overhead Mandel track sprayer equipped with 8002E nozzles calibrated to deliver 187 L/ha over an application area of 0.503 square meters (m^2) at a spray height of 18 to 20 inches (46 to 50 cm) above average plant canopy height. Control plants were sprayed in the same manner with the solvent blank.
(§7) The treated plants and control plants were placed in a greenhouse as described above and watered by sub-irrigation to prevent wash-off of the test compounds. After approximately 3 weeks, the condition of the test plants as compared to that of the untreated plants was determined visually and scored on a scale of 0 to 100 percent where 0 corresponds to no injury or growth inhibition and 100 corresponds to complete kill.
(§8) Colby's equation was used to determine the herbicidal effects expected from the mixtures (Colby, S. R. Calculation of the synergistic and antagonistic response of herbicide combinations. Weeds 1967, 15, 20-22.).
(§9) The following equation was used to calculate the expected activity of mixtures containing two active ingredients, A and B: Expected=A+B−(A×B/100)

[3] = test system: LEFFA; experiment: as above; format: in vivo, Leptochloa fascicularis
Text: as §2, §3, §1, §4, §5, §6, §7, §8, §9

[4] = test system: CYPES; format: in vivo, Cyperus esculentus
Procedure: as §2, with “When required to ensure good germination and healthy plants, a fungicide treatment and/or other chemical or physical treatment was applied.” left out
as §3, §4, §5, §6, §7, §8, §9

COc1c(Cl)ccc(-c2nc(C(=O)OCc3ccccc3)c(Cl)c(N)c2F)c1F [Compound A Benzyl Ester]
Visual Weed Control (%) - 22 DAA SCPJU Obs [1]: 70% | Visual Weed Control (%) - 22 DAA LEFPA Obs ([2]; 8 g ae/ha alone): 5% | Visual Weed Control (%) - 22 DAA LEFPA Obs ([2]; 16 g ae/ha alone): 0% | Visual Weed Control (%) - 22 DAA LEFPA Obs ([2]; 32 g ae/ha alone): 38% | Visual Weed Control (%) - 22 DAA LEFFA Obs ([3]; 8 g ae/ha alone): 23% | Visual Weed Control (%) - 22 DAA LEFFA Obs ([3]; 16 g ae/ha alone): 30% | Visual Weed Control (%) - 22 DAA LEFFA Obs ([3]; 22 DAA, 8 g ae/ha alone): 23% | Visual Weed Control (%) - 22 DAA LEFFA Obs ([3]; 22 DAA, 16 g ae/ha alone): 30% | Visual Weed Control (%) - 22 DAA LEFFA Obs ([3]; 22 DAA, 32 g ae/ha alone): 45% | Visual Weed Control (%) - 22 DAA LEFFA Obs ([3]; 32 g ae/ha alone): 45% | Visual Weed Control (%) - 20 DAA CYPES Obs ([4]; 8 g ae/ha alone): 25% | Visual Weed Control (%) - 22 DAA CYPES Obs ([4]; 8 g ae/ha alone): 70% | Visual Weed Control (%) - 20 DAA CYPES Obs ([4]; 16 g ae/ha alone): 40% | Visual Weed Control (%) - 22 DAA CYPES Obs ([4]; 16 g ae/ha alone): 95% | Visual Weed Control (%) - 22 DAA CYPES Obs ([4]; 22 DAA, 8 g ae/ha alone): 70% | Visual Weed Control (%) - 20 DAA CYPES Obs ([4]; 32 g ae/ha alone): 73%
